Data as given in ChEMBL document CHEMBL1201862, “PubChem BioAssay data set” (2004).
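1) Cells in 96-well plates. 2) Compound, 48 h, 5 concentrations. 3) Linear interpolation between surrounding doses. 4) Unreached endpoint = highest concentration. The concentration for 50% growth inhibition is given as GI50.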 Calls of active or inactive are those of the source. No stated cut-off is given here; in the data, active = GI50 up to about 1.1 µM and inactive = higher.

Key:
Experiment in all cases: NCI tumour cell line growth inhibition, 48 h
SF-295 = system: SF-295
CAKI-1 = system: CAKI-1
OVCAR-8 = system: OVCAR-8
TK-10 = system: TK-10
OVCAR-5 = system: OVCAR-5
RXF 393 = system: RXF 393
KM12 = system: KM12
NCI/ADR-RES = system: NCI/ADR-RES
NCI-H23 = system: NCI-H23
IGROV-1 = system: IGROV-1
ACHN = system: ACHN
SNB-75 = system: SNB-75
A549 = system: A549
SK-MEL-28 = system: SK-MEL-28
HCT-116 = system: HCT-116
HT-29 = system: HT-29
SK-MEL-2 = system: SK-MEL-2
UO-31 = system: UO-31
COLO 205 = system: COLO 205
DU-145 = system: DU-145

Measured: GI50

CCOC(=O)/C=C(/C(=O)OCC)n1cc(C)c(=O)[nH]c1=O
inactive: SF-295 17.3 µM | CAKI-1 1.15 µM | OVCAR-8 4.62 µM | TK-10 2.52 µM | OVCAR-5 5.87 µM | RXF 393 1.95 µM | KM12 14.2 µM | NCI/ADR-RES 10.9 µM | NCI-H23 5.56 µM | IGROV-1 5.36 µM | ACHN 2.72 µM | SNB-75 10.3 µM | A549 16.4 µM | SK-MEL-28 4.78 µM | HCT-116 2.43 µM | HT-29 4.92 µM | SK-MEL-2 7 µM | UO-31 11.2 µM | COLO 205 1.81 µM | DU-145 16.1 µM

CCCC1c2c(ccc3ccccc23)Oc2ccc3ccccc3c21
inactive: SF-295 28.1 µM | CAKI-1 > 100 µM | OVCAR-8 > 100 µM | TK-10 35.7 µM | OVCAR-5 54.1 µM | RXF 393 29.1 µM | KM12 39.3 µM | NCI/ADR-RES 94 µM | NCI-H23 60.4 µM | IGROV-1 50.7 µM | ACHN 31 µM | SNB-75 > 100 µM | A549 47.5 µM | SK-MEL-28 68.4 µM | HCT-116 20.7 µM | HT-29 28.1 µM | SK-MEL-2 20.3 µM | UO-31 > 100 µM | COLO 205 41.9 µM | DU-145 84.3 µM

NNc1nnc(CCCCCCCCc2nnc(NN)n2N)n1N
inactive: SF-295 76.9 µM | CAKI-1 > 100 µM | OVCAR-8 17.1 µM | TK-10 > 100 µM | OVCAR-5 > 100 µM | RXF 393 > 100 µM | KM12 > 100 µM | NCI/ADR-RES 80.4 µM | NCI-H23 97.7 µM | IGROV-1 55.3 µM | ACHN > 100 µM | SNB-75 60.3 µM | A549 > 100 µM | SK-MEL-28 > 100 µM | HCT-116 > 100 µM | HT-29 > 100 µM | SK-MEL-2 84.5 µM | UO-31 > 100 µM | COLO 205 > 100 µM | DU-145 > 100 µM

Cc1ccc(NC(=O)c2ccc(OP(=O)(O)Nc3ccc(C)cc3)cc2)cc1
inactive: SF-295 > 100 µM | CAKI-1 > 100 µM | OVCAR-8 > 100 µM | TK-10 > 100 µM | OVCAR-5 > 100 µM | RXF 393 50.7 µM | KM12 > 100 µM | NCI/ADR-RES > 100 µM | NCI-H23 > 100 µM | IGROV-1 > 100 µM | ACHN > 100 µM | SNB-75 > 100 µM | A549 > 100 µM | SK-MEL-28 > 100 µM | HCT-116 > 100 µM | HT-29 > 100 µM | SK-MEL-2 12 µM | UO-31 66.8 µM | COLO 205 > 100 µM | DU-145 > 100 µM

O=C(Nc1ccn(C2CCC(COC(c3ccccc3)(c3ccccc3)c3ccccc3)O2)c(=O)n1)c1ccccc1 (stereo not given)
inactive: SF-295 3.11 µM | CAKI-1 4.51 µM | OVCAR-8 4.82 µM | TK-10 5.12 µM | OVCAR-5 3.76 µM | RXF 393 2.9 µM | KM12 5.87 µM | NCI/ADR-RES 2.72 µM | NCI-H23 2.31 µM | IGROV-1 6.04 µM | ACHN 3.8 µM | SNB-75 2.39 µM | A549 4.21 µM | SK-MEL-28 9.23 µM | HCT-116 3.33 µM | HT-29 2.4 µM | SK-MEL-2 2.48 µM | UO-31 5.3 µM | COLO 205 1.77 µM | DU-145 7.91 µM

COc1ccc2[nH]c(Cl)c(/C=C3/C(=O)N(c4ccccc4)c4ccccc43)c2c1
inactive: SF-295 2.48 µM | CAKI-1 10.6 µM | OVCAR-8 6.44 µM | TK-10 10.8 µM | OVCAR-5 13.6 µM | RXF 393 15.9 µM | KM12 3.25 µM | NCI/ADR-RES 2.1 µM | NCI-H23 4.06 µM | IGROV-1 4.84 µM | ACHN 7.57 µM | SNB-75 12.3 µM | A549 5.31 µM | SK-MEL-28 8.49 µM | HCT-116 5.07 µM | HT-29 3.98 µM | SK-MEL-2 2.92 µM | UO-31 7.59 µM | COLO 205 2.18 µM | DU-145 18.3 µM

CC(NCc1c(O)ccc2c(-c3ccccc3)cc(=O)oc12)C(=O)O (stereo not given)
inactive: SF-295 > 100 µM | CAKI-1 > 100 µM | OVCAR-8 > 100 µM | TK-10 > 100 µM | OVCAR-5 > 100 µM | RXF 393 > 100 µM | KM12 > 100 µM | NCI/ADR-RES > 100 µM | NCI-H23 > 100 µM | IGROV-1 > 100 µM | ACHN > 100 µM | SNB-75 > 100 µM | A549 > 100 µM | SK-MEL-28 > 100 µM | HCT-116 > 100 µM | HT-29 > 100 µM | SK-MEL-2 > 100 µM | UO-31 > 100 µM | COLO 205 > 100 µM | DU-145 > 100 µM

CCCCn1c2c(n(CCCC)c1=S)-c1c(n(CCCC)c(=S)n1CCCC)SSc1c(n(CCCC)c(=S)n1CCCC)-c1c(n(CCCC)c(=S)n1CCCC)SSc1c(n(CCCC)c(=S)n1CCCC)-c1c(n(CCCC)c(=S)n1CCCC)SS2
inactive: SF-295 10.4 µM | CAKI-1 10.2 µM | OVCAR-8 1.77 µM | TK-10 > 30.2 µM | OVCAR-5 9.12 µM | RXF 393 2.72 µM | KM12 19.4 µM | NCI/ADR-RES > 50 µM | NCI-H23 16.3 µM | IGROV-1 2.43 µM | ACHN 2.36 µM | SNB-75 10.1 µM | A549 > 50 µM | SK-MEL-28 13.6 µM | HCT-116 4.72 µM | HT-29 11.6 µM | SK-MEL-2 10.7 µM | UO-31 6.47 µM | COLO 205 2.64 µM | DU-145 29.8 µM

CC1=NN(c2ccccc2)C(=O)C1C(=O)C(=O)Nc1ccc(C)cc1C (stereo not given)
inactive: SF-295 > 100 µM | CAKI-1 > 100 µM | OVCAR-8 > 100 µM | TK-10 > 100 µM | OVCAR-5 > 100 µM | RXF 393 > 100 µM | KM12 > 100 µM | NCI/ADR-RES > 100 µM | NCI-H23 > 100 µM | IGROV-1 > 100 µM | ACHN > 100 µM | SNB-75 > 100 µM | A549 > 100 µM | SK-MEL-28 > 100 µM | HCT-116 > 100 µM | HT-29 > 100 µM | SK-MEL-2 > 100 µM | UO-31 > 100 µM | COLO 205 > 100 µM | DU-145 > 100 µM

Cc1cc(C)c2c(O)cc(-c3ccc4ccccc4c3)nc2n1
inactive: SF-295 16.2 µM | CAKI-1 54.6 µM | OVCAR-8 39 µM | TK-10 31 µM | OVCAR-5 43.8 µM | RXF 393 71.6 µM | KM12 6.04 µM | NCI/ADR-RES 17.1 µM | NCI-H23 30.8 µM | IGROV-1 12.6 µM | ACHN 46 µM | SNB-75 15.8 µM | A549 12.5 µM | SK-MEL-28 > 47.4 µM | HCT-116 13.8 µM | HT-29 12.1 µM | SK-MEL-2 13.6 µM | UO-31 22.9 µM | COLO 205 18.3 µM | DU-145 21.7 µM
